Experimental data taken from article PMC9774334 (ACS Omega, 2022).

Legend:
TmaFuc = target: T1, TmaFuc (Thermotoga maritima, UniProt Q9WYE2); assay: p-nitrophenol release at […] nm; assay type: biochemical; conditions: 2 mM substrate
T1 sequence (Q9WYE2 1-449): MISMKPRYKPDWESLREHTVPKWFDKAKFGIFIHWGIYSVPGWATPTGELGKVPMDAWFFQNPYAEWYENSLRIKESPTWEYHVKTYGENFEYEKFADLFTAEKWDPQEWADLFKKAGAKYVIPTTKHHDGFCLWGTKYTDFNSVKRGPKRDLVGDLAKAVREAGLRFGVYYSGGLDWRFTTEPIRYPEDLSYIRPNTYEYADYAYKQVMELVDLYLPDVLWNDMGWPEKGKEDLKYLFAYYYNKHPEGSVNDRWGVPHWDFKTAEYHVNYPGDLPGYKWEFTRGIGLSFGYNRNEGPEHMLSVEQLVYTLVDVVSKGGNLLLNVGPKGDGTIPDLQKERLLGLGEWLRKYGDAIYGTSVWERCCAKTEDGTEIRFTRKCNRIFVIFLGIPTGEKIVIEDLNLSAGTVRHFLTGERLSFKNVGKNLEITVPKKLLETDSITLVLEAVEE

ClAgl29B = target: T2, ClAgl29B (Cecembia lonarensis, UniProt K1KV82); assay: X-ray crystal structure, […] Å, soaking; assay type: binding; conditions: active site; crystal pH 3.5, 30 mM L-glucose soak
T2 sequence (K1KV82 21-586): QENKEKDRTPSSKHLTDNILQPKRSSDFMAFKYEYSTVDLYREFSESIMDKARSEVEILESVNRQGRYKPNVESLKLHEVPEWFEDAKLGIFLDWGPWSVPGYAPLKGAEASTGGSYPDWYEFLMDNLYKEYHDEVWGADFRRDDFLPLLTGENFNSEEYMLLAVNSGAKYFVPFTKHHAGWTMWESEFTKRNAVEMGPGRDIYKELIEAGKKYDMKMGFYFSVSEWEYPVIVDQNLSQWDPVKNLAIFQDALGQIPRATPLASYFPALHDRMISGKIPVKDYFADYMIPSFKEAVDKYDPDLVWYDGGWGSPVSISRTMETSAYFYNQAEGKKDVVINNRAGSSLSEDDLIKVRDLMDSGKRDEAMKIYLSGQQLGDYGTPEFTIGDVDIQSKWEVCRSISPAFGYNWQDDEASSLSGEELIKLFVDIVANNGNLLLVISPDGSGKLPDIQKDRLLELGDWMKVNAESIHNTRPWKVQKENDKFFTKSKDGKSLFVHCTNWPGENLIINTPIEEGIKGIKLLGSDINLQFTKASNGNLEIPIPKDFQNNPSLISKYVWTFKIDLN

Compound | p-nitrophenol release at 400 nm (TmaFuc) | X-ray crystal structure, 1.7 Å, soaking (ClAgl29B)
C[C@@H]1O[C@@H](Oc2ccc([N+](=O)[O-])cc2)[C@@H](O)[C@H](O)[C@@H]1O [PNP α-L-Fuc] | TmaFuc hydrolyzed PNP α-L-Fuc | –
OC[C@@H]1O[C@H](O)[C@@H](O)[C@H](O)[C@H]1O [β-L-glucose] | – | The ClAgl29B complex obtained with β-L-glucose by a soaking experiment
